The record followed here is patent US7745572B2, “Peptides effective in the treatment of tumors and other conditions requiring the removal or destruction of cells” (Qualcomm Incorporated, priority 2001, dated 2010).

The assay has as its system rat prostate. Description: Intraprostatic infusion in rats, prostate volume and histology at 72 hours. Type of assay: in vivo, Sprague-Dawley rats. Particulars: 1 mg/mL in PBS pH 7.4 (1.0 mg/kg). The protocol: Male Sprague-Dawley rats (300 gram weight range) were anesthetized with ether and given NTP[122] peptide #1 by intraprostatic infusion after open surgical visualization of the prostate. The injections consisted of 300 μl of NTP[122] peptide #1, 1 mg/mL in PBS pH 7.4. (1.0 mg/kg) (n=8), control injections of PBS alone (n=6), and controls with no injection (n=2). Rats were painlessly sacrificed after 72 hours. Prostate glands were dissected, fixed in 10%, buffered formalin for 24 hours, embedded in paraffin, sectioned, and stained with H & E. For each animal the entire prostate gland was embedded and sectioned. All stained sections were examined histologically and measured. For each prostate at least 4 histological sections were examined, and for each histological section two cross-sectional diameters (D) at 90° from each other were measured (total of ≧8 measurements per prostate). […]
Male Sprague-Dawley rats (300 gram weight range) were anesthetized with ether and given NTP[112] peptide #1 by intraprostatic infusion after open surgical visualization of the prostate. […] All stained sections were examined histologically and measured. For each prostate at least 4 histological sections were examined, and for each histological section two cross-sectional diameters (D) at 90° from each other were measured (total of ≧8 measurements per prostate). […]

On to “IDQQVLSRIKLEIKRCL (listed as Homo sapiens) [NTP[122] peptide #1]”, for which the “prostate histology (H & E)” value was “extensive loss of glandular epithelium, flattening and atrophy”.
As for “MAQSRLTATSASRVQ (listed as Homo sapiens) [NTP[112] peptide #1]”, the “prostate histology (H & E)” value is “significant cell loss and atrophy”.
